Where two headings read alike, the source gives them in different places.
Key:
[1] = Phase 1 pharmacokinetic study, single oral 25 mg dose of d6-tetrabenazine or tetrabenazine (immediate release, powder in capsule), two-period crossover; type: in vivo, human; settings: for AUCinf / AUClast / Cmax / Tmax / t1/2: plasma analyte, single oral 25 mg d6-tetrabenazine or tetrabenazine; for AUCinf / AUClast / Cmax / Tmax / t1/2 / AUCinf (AUClast presented for parent drug as AUCinf not calculable): fasted, mean; for AUCinf (AUClast presented for parent drug as AUCinf not calculable): parent drug in plasma, single oral 25 mg; for Ratio of LS Means, AUCinf / Ratio of LS Means, AUClast / Ratio of LS Means, Cmax / Ratio of LS Means, t1/2: d6-tetrabenazine 25 mg (test) to tetrabenazine 25 mg (reference), ANOVA
Method: A Phase 1 pharmacokinetic study was conducted in 24 healthy extensive and intermediate CYP2D6 metabolizer volunteers receiving oral 25 mg doses of d6-tetrabenazine or tetrabenazine to compare the relative bioavailability and pharmacokinetics of single oral doses of d6-tetrabenazine and its metabolites d6-α-HTBZ and d6-β-HTBZ with their non-deuterated equivalents (tetrabenazine, α-HTBZ and β-HTBZ) as well as the corresponding O-desmethyl metabolites of α-HTBZ and β-HTBZ. Subjects received a single oral dose of 25 mg of d6-tetrabenazine or tetrabenazine after an overnight fast, as a powder in capsule, in Period 1 and following washout of at least 7 days. Patients were crossed over to receive the other treatment in Period 2. In each period, plasma samples were collected over 72 hours post-dose.
Pharmacokinetic results are shown below in Table 37 and FIG. 3, results are presented as Mean (% CV) for Cmax, AUC and t1/2 (AUClast presented for parent drug as AUCinf not calculable), and as Mean (range) for Tmax. The increased exposure was principally attributable to increases in half-life and was associated with proportional reductions in O-desmethyl metabolites of HTBZ.
The effect of deuteration on key pharmacokinetic parameters was evaluated by comparing d6-tetrabenazine (test) to tetrabenazine (reference) using an analysis of variance (ANOVA) model for a two-period crossover including factors Sequence, Treatment, Period and Subject. Pharmacokinetic parameters were log-transformed before analysis.

[2] = type: in vitro ADME
From the text: d6-Tetrabenazine has been designed with the intent to improve the pharmacokinetic profile of active metabolites α-HTBZ and β-HTBZ. The CYP mediated cleavage of the carbon-deuterium bonds within the trideuterated methyl groups (CD3) of d6-tetrabenazine is slower than the cleavage of the carbon-hydrogen bonds in the methyl groups (CH3) of tetrabenazine, an effect that selectively attenuated O-demethylation of deuterated α-HTBZ and β-HTBZ (d6-α-HTBZ and d6-β-HTBZ) in in vitro studies.
The spectrum of metabolites produced by d6-tetrabenazine is expected to be similar to that in patients with reduced CYP2D6 metabolism who receive tetrabenazine. This is based on in vitro metabolism studies and a drug interaction study of tetrabenazine and paroxetine. In the drug interaction study, co-administration of tetrabenazine and paroxetine increased systemic exposure to the α-HTBZ and β-HTBZ metabolites by 3- to 9-fold, respectively, compared to tetrabenazine alone (Xenazine® U.S. prescribing information). […] Administration of d6-tetrabenazine to healthy volunteers led to an approximate 2-fold increase in systemic exposure to α-HTBZ and β-HTBZ and proportional reductions in O-desmethyl metabolites compared to tetrabenazine. […]

[3] = human plasma; cited from earlier work
[4] = co-administration of tetrabenazine and paroxetine, compared to tetrabenazine alone; cited from earlier work

Molecule	AUCinf [1] [ng·h/mL]	AUClast [1] [ng·h/mL]	Cmax [1] [ng/mL]	Tmax [1] [h]	t1/2 [1] [h]	also measured
[2H]C([2H])([2H])Oc1cc2c(cc1O)CCN1C[C@@H](CC(C)C)[C@@H](O)C[C@H]21 [d3-9-O-desmethy1-β-HTBZ]	114	92.4	6.29	1.75	16.9	
COc1cc2c(cc1O)C1CC(O)C(CC(C)C)CN1CC2 (stereo not drawn) [10-ODM-β-HTBZ]		3.0	1.63	1.25		
COc1cc2c(cc1O)CCN1C[C@@H](CC(C)C)[C@H](O)C[C@H]21 [9-O-desmethyl-α-HTBZ]	49.9	42.5	5.05	2.00	6.95	
COc1cc2c(cc1OC)[C@@H]1CC(=O)[C@@H](CC(C)C)CN1CC2 (racemic) [Tetrabenazine, (3R,11bR)-1,3,4,6,7,11b-Hexahydro-9,10-dimethoxy-3-(2-methylpropyl)-2H-benzo[a]quinolizin-2-one, and (3S,11bS)-1,3,4,6,7,11b-hexahydro-9,10-dimethoxy-3-(2-methylpropyl)-2H-benzo[a]quinolizin-2-one, reference compound]						Cmax ([1]; human, read-out: Cmax): 0.314 ng/mL; AUCinf (AUClast presented for parent drug as AUCinf not calculable) [1]: 0.26 ng·h/mL
COc1cc2c(cc1O)CCN1C[C@@H](CC(C)C)[C@@H](O)C[C@H]21 [9-O-desmethyl-β-HTBZ]	220	205	15.7	1.75	16.2	
[2H]C([2H])([2H])Oc1cc2c(cc1OC([2H])([2H])[2H])[C@@H]1CC(=O)[C@@H](CC(C)C)CN1CC2 (racemic) [d6-Tetrabenazine, (3R,11bR)-1,3,4,6,7,11b-hexahydro-9,10-di(methoxy-d3)-3-(2-methylpropyl)-2H-benzo[a]quinolizin-2-one and (3S,11bS)-1,3,4,6,7,11b-hexahydro-9,10-di(methoxy-d3)-3-(2-methylpropyl)-2H-benzo[a]quinolizin-2-one]						systemic exposure to total (α+β)-HTBZ ([1]; compared to exposure following tetrabenazine administration): more than doubling; Cmax ([1]; human, read-out: Cmax): 0.327 ng/mL; AUCinf (AUClast presented for parent drug as AUCinf not calculable) [1]: 0.30 ng·h/mL

Continued, in another order:

AUCinf [1] [ng·h/mL]	AUClast [1] [ng·h/mL]	Cmax [1] [ng/mL]	Tmax [1] [h]	t1/2 [1] [h]	Molecule	also measured
373		46.1	1.5	8.97	[2H]C([2H])([2H])Oc1cc2c(cc1OC([2H])([2H])[2H])[C@H]1C[C@@H](O)[C@H](CC(C)C)CN1CC2 [d6-α-HTBZ, deuterated alpha-dihydrotetrabenazine]	less of the O-desmethyl metabolites produced [2]: 69-87%
	0.7	0.59	1.50		[2H]C([2H])([2H])Oc1cc2c(cc1O)C1CC(O)C(CC(C)C)CN1CC2 (stereo not drawn) [d3-10-ODM-β-HTBZ]	
	21.0	2.15	3.02		[2H]C([2H])([2H])Oc1cc2c(cc1O)CCN1C[C@@H](CC(C)C)[C@H](O)C[C@H]21 [d3-9-O-desmethyl-α-HTBZ]	
189		41.2	1.00	5.47	alpha-dihydrotetrabenazine [α-HTBZ]	Ratio of LS Means, AUCinf [1]: 213.6%; Ratio of LS Means, AUClast [1]: 214.8%; Ratio of LS Means, Cmax [1]: 113.7%; Ratio of LS Means, t1/2 [1]: 174.7%; half-lives [3]: 7 h; increase in systemic exposure [4]: 3 fold
74.0		20.5	1.00	2.95	COc1cc2c(cc1OC)[C@H]1C[C@H](O)[C@H](CC(C)C)CN1CC2 [β-HTBZ, beta-dihydrotetrabenazine]	Ratio of LS Means, AUCinf [1]: 235.8%; Ratio of LS Means, AUClast [1]: 240.1%; Ratio of LS Means, Cmax [1]: 145.8%; Ratio of LS Means, t1/2 [1]: 153.0%; half-lives [3]: 5 h; increase in systemic exposure [4]: 9 fold
171		29.6	1.50	5.00	[2H]C([2H])([2H])Oc1cc2c(cc1OC([2H])([2H])[2H])[C@@H]1C[C@@H](O)[C@@H](CC(C)C)CN1CC2 [d6-β-HTBZ, deuterated beta-dihydrotetrabenazine]	less of the O-desmethyl metabolites produced [2]: 69-87%
